Laboratory results published in article PMC12263422, “Cryo-EM structure of the human THIK-1 K2P K^+ channel reveals a lower Y gate regulated by lipids and anesthetics” (Nature Structural & Molecular Biology, 2025).
“And” between values parts separate entries of the source, which are not always exact repeats. Identical values can stand only once. Like-named read-outs stand apart in the source and are kept apart here. Blank lines part the entries; values can stand above or below the compound they belong to.

Target: T1, Human K2P13.1 THIK-1 (WT) (Homo sapiens, UniProt Q9HB14)
T1 construct: expressed in transfected cells; host or cells: Xenopus oocytes (mRNA injection)
T1 sequence (Q9HB14 1-408): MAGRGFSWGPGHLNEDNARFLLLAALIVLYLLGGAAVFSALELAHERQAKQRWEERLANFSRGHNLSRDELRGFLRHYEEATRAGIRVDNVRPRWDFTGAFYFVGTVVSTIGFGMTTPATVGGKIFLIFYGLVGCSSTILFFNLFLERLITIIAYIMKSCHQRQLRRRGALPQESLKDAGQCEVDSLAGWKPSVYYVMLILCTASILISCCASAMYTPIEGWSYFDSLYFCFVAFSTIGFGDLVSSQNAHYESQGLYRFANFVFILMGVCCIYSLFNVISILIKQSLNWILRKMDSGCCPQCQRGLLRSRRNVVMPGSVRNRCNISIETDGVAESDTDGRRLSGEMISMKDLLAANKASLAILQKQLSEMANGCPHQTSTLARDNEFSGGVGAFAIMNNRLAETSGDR
Test: Macroscopic inside-out excised patch recordings from Xenopus oocytes expressing WT THIK-1; compounds applied to the intracellular side
Format: cell-based
Conditions: for inhibition at 152 µM: halothane 0.152 mM; for inhibition at 304 µM: halothane 0.304 mM; for inhibition at 1520 µM: halothane 1.52 mM; for inhibition at 3040 µM: halothane 3.04 mM; for inhibition at 15200 µM: halothane 15.2 mM; for Fold activation: THIK-1 WT (unstimulated)
Description: Human K2P13.1 THIK-1 (GenBank accession number: NM_022054) and human K2P12.1 THIK-2 (NM_022055.1) were used in this study. For functional expression studies, the respective K^+ channel subtype coding sequences were subcloned into the oocyte expression vector pSGEM or the dual-purpose expression vector pFAW[41] and verified by sequencing. All mutant channels were obtained by site-directed mutagenesis and verified by sequencing. To increase surface expression and macroscopic currents, measurements of THIK-2 channels used a mutated ER retention motif, (R11A R12A R14A R15A R16A; THIK-2*)[20]. Vector DNA was linearized with NheI or MluI, and mRNA was synthesized in vitro using the SP6 or T7 AmpliCap Max High Yield Message Maker Kit (Cellscript, USA) or HiScribe T7 ARCA mRNA Kit (New England Biolabs).
Two-electrode voltage–clamp (TEVC) studies were performed in Xenopus oocytes. All animal use conformed to the Guide for the Care and Use of Laboratory Animals (NIH Publication 85–23), and all experiments using Xenopus toads were approved by the local ethics panels. Oocytes were stored at 17 °C in ND96 recording solution composed of (in mM): 96 NaCl, 2 KCl, 1.8 CaCl2, 1 MgCl2, 5 HEPES (pH 7.5 adjusted with NaOH and HCl), supplemented with Na-pyruvate (275 mg L^–1), theophylline (90 mg L^–1) and gentamicin (50 mg L^–1). Oocytes were injected with 1 ng mRNA for WT or mutant channels, and were incubated for 24–48 h at 17 °C. Two-electrode voltage clamp recordings were then performed as previously described[42],[43]. For macroscopic patch–clamp measurements, oocytes were obtained as described above incubated at 17 °C in a solution containing (mM): 54 NaCl, 30 KCl, 2.4 NaHCO3, 0.82 MgSO4 ×7 H2O, 0.41 CaCl2, 0.33 Ca(NO3)2 ×4 H2O and 7.5 TRIS (pH 7.4 adjusted with NaOH and HCl) for 1–4 days before use. Excised patch recordings in inside-out configuration conditions were performed at room temperature. Patch pipettes were made from thick-walled borosilicate glass GB 200TF-8P (Science Products), had resistances of 0.2–0.5 MΩ (tip diameter, 10–25 µm) and filled with a pipette solution (in mM): 120 KCl, 10 HEPES and 3.6 CaCl2 (pH 7.4 adjusted with KOH and HCl). Intracellular bath solutions and compounds were applied to the cytoplasmic side of excised patches for the various K^+ channels through a gravity flow multi-barrel pipette system. The intracellular solution had the following composition (in mM): 120 KCl, 10 HEPES, 2 EGTA and 1 pyrophosphate (pH adjusted with KOH and HCl). Currents were recorded with an EPC10 amplifier (HEKA Electronics) and sampled at 10 kHz or higher, with filtering set to 3 kHz (–3 dB) or higher, as appropriate for sampling rate. For measurements of GPCR activation, whole-cell currents were recorded for THIK-1 in transiently transfected HEK-293 cells. Cells were stimulated by a ramp protocol between −100 and +60 mV (holding potential, −80 mV). The pipette solution was composed of (in mM): 140 KCl, 2 MgCl2, 1 CaCl2, 2.5 EGTA and 10 HEPES (pH 7.3 adjusted with KOH and HCl). The extracellular bath solution had the following composition (in mM): 135 NaCl, 5 KCl, 2 MgCl2, 2 CaCl2, 10 glucose and 10 HEPES pH (pH 7.3 adjusted with NaOH and HCl). Oxotremorine M (Oxo-M) was added to extracellular bath solution to obtain the final concentration. Single-channel currents were recorded with an Axopatch 200B amplifier through a Digidata 1440A digitizer (Molecular Devices). Data were filtered at 2 kHz and recorded at a 200-kHz sampling rate with the program Clampex (Molecular Devices). Pipette solution and bath solution for cell-attached recordings contained (in mM): 140 KCl, 2 MgCl2, 1 CaCl2 and 10 HEPES (pH 7.4 adjusted with KOH and HCl). For inside-out recordings, the bath solution contained (in mM): 140 KCl, 2 MgCl2, 1 CaCl2 and 10 HEPES (pH 7.2 adjusted with KOH and HCl). All experiments were conducted at room temperature. […]

[1] = THIK-1 WT (TPenA), presence of 0.5 mM TPenA
[2] = THIK-1 WT (oleoyl-CoA), 5.0 µM oleoyl-CoA

inhibition at 152 µM (THIK-1 WT): 11%
inhibition at 152 µM [1]: 6.45%
inhibition at 304 µM (THIK-1 WT): 18.8%
inhibition at 304 µM [1]: 13%
inhibition at 304 µM [2]: 4.78%
inhibition at 1520 µM (THIK-1 WT): 41.4%
inhibition at 1520 µM [1]: 23.2%
inhibition at 1520 µM [2]: 19.9%
inhibition at 3040 µM (THIK-1 WT): 57.6%
inhibition at 3040 µM [1]: 30%
inhibition at 3040 µM [2]: 38.9%
inhibition at 15200 µM (THIK-1 WT): 83.9%
inhibition at 15200 µM [1]: 57.9%
inhibition at 15200 µM [2]: 69.3%
SMILES: FC(F)(F)C(Cl)Br (centres unmarked) [halothane]

inhibition at 242 µM (THIK-1 WT (oleoyl-CoA), 0.242 mM isoflurane): 10.6%
inhibition at 485 µM (THIK-1 WT (oleoyl-CoA), 0.485 mM isoflurane): 21%
inhibition at 2420 µM (THIK-1 WT (oleoyl-CoA), 2.42 mM isoflurane): 33.6%
inhibition at 4850 µM (THIK-1 WT (oleoyl-CoA), 4.85 mM isoflurane): 60.9%
inhibition at 24200 µM (THIK-1 WT (oleoyl-CoA), 24.2 mM isoflurane): 79.7%
Inhibition (THIK-1 WT (oleoyl-CoA), isoflurane concentration printed as "v" (mM)): 4.36%
inhibition at 48 µM (isoflurane 0.048 mM, THIK-1 WT): 20.4%
inhibition at 242 µM (isoflurane 0.242 mM, THIK-1 WT): 33.6%
inhibition at 485 µM (isoflurane 0.485 mM, THIK-1 WT): 50.2%
inhibition at 2420 µM (isoflurane 2.42 mM, THIK-1 WT): 65.3%
inhibition at 4850 µM (isoflurane 4.85 mM, THIK-1 WT): 81.1%
inhibition at 24200 µM (isoflurane 24.2 mM, THIK-1 WT): 89.5%
SMILES: FC(F)OC(Cl)C(F)(F)F (centres unmarked) [Isoflurane, isoflurane]
Inhibition (%) (4.9 mM Isoflurane, WT, individual recordings): 88.353% and 81.703% and 79.557% and 81.992% and 78.205% and 79.070% and 68.116% and 80.054% and 86.809% and 87.556%

Fold activation (1 µM linoleic acid): 0.98
Fold activation (10 µM linoleic acid): 1.75
Fold activation (30 µM linoleic acid): 2.77
Fold activation (50 µM linoleic acid): 3.38
Fold activation (100 µM linoleic acid): 3.62
Fold activation (150 µM linoleic acid): 4.27
Fold activation (200 µM linoleic acid): 4.21
Fold activation with 30.0 µM linoleic acid (THIK-1 WT, mean): 2.77
EC50 (THIK-1 WT, mean, read-out: Linoleic acid EC50): 28.5 µM
EC50 (applied intracellularly to excised patches, WT, read-out: half-maximal effective concentration (activation)): 29 ± 5 µM
SMILES: CCCCC/C=C\C/C=C\CCCCCCCC(=O)O [linoleic acid]
Fold activation with 30.0 µM linoleic acid (THIK-1 WT, individual recordings): 3.150 and 3.640 and 4.490 and 2.650 and 2.000 and 1.880 and 1.350 and 1.220 and 3.650 and 3.260 and 3.220
